Laboratory results published in patent US6303349A, “Esterase and methods for the production of optically active chroman compounds” (Mitsui Chemicals, Inc., priority 1997, dated 2001).

Test system: esterase from Pseudonocardia thermophila FERM BP-6275, homogeneously purified (Example 2)
Test: Effect of inhibitors on the purified esterase (remaining hydrolysis of racemic 6-aminochroman-3-acetic acid methyl ester)
Format: biochemical

SMILES: OC(CS)C(O)CS (stereo not shown) [DTT]
- Relative activity (inhibitor 0.1 mM, pre-incubated 30° C. 30 min, pH 7.2, reaction 55° C. 30 min, 100% = activity without inhibitors): 102%

SMILES: O=C(O)CN(CCN(CC(=O)O)CC(=O)O)CC(=O)O [EDTA]
- Relative activity (pH 7.2, 30 min, 5000 µM): 103

SMILES: O=S(=O)(F)Cc1ccccc1 [PMSF, phenylmethylsulfonyl fluoride]
- Relative activity (pH 7.2, 30 min, 100 µM): 84
- remaining enzyme activity (pH 7.2, 30 min, 100 µM): 85%
